Test results from patent US9617240B2 (TEIJIN PHARMA LIMITED, priority 2013, dated 2017).

Target: T1, oxidase type xanthine oxidase (derived from buttermilk) (Bos taurus, UniProt P80457)
T1 construct: oxidase type xanthine oxidase (derived from buttermilk, supplied by Calbiochem Novabiochem Corp.); purchased Calbiochem Novabiochem Corp; host or cells: buttermilk (natural source)
Assay: Xanthine oxidase inhibitory activity (absorbance change at 290 nm)
Format: biochemical
Conditions: xanthine substrate, 100 mM phosphate buffer, absorbance at 290 nm for 5 minutes; read-out: Inhibitory Activity (50% inhibitory concentration with respect to oxidase type xanthine oxidase)
Description: The xanthine oxidase inhibitory activity was measured for the compounds synthesized according to the above Examples.
After a test compound was dissolved in DMSO (manufactured by Sigma Co.) so that the concentration is 20 mM, the test compound was prepared and used at a desired concentration at the time of use.
The evaluation of the xanthine oxidase inhibitory activity of the compounds of the present invention was conducted by partially modifying the method described in the literature (Method Enzymatic Analysis, 1, 521-522, 1974). The present evaluation is based on the oxidase type xanthine oxidase inhibitory activity evaluation. That is, a xanthine (manufactured by Sigma Co.) solution prepared at 10 mM in advance using a 20 mM sodium hydroxide solution was adjusted to 30 μM using a 100 mM phosphate buffer solution, and 75 μL/well of each solution was added into a 96-well plate. Aliquots (1.5 μL/well) of each test sample, which was diluted with DMSO so that the concentration is 100 times the final concentration, were added into a 96-well plate, and after mixing, the absorbance at 290 nm was measured by a microplate reader SPECTRA MAX Plus 384 (manufactured by Molecular Devices, LLC). Subsequently, oxidase type xanthine oxidase (derived from buttermilk, supplied by Calbiochem Novabiochem Corp.) was prepared at 30.6 mU/mL using a 100 mM phosphate buffer solution and 73.5 μL/well of each solution was added. Immediately after mixing, the change in absorbance at 290 nm was measured for 5 minutes. The enzyme activity when DMSO was used instead of a test compound solution was defined as 100%, the inhibitory rate of the test compounds was calculated and the 50% inhibitory concentration with respect to oxidase type xanthine oxidase was calculated by fitting to the dose-response curve.
Note that the symbols (+, ++, +++) in the table represent inhibitory activity values as shown below.

T1 sequence (P80457 whole entry): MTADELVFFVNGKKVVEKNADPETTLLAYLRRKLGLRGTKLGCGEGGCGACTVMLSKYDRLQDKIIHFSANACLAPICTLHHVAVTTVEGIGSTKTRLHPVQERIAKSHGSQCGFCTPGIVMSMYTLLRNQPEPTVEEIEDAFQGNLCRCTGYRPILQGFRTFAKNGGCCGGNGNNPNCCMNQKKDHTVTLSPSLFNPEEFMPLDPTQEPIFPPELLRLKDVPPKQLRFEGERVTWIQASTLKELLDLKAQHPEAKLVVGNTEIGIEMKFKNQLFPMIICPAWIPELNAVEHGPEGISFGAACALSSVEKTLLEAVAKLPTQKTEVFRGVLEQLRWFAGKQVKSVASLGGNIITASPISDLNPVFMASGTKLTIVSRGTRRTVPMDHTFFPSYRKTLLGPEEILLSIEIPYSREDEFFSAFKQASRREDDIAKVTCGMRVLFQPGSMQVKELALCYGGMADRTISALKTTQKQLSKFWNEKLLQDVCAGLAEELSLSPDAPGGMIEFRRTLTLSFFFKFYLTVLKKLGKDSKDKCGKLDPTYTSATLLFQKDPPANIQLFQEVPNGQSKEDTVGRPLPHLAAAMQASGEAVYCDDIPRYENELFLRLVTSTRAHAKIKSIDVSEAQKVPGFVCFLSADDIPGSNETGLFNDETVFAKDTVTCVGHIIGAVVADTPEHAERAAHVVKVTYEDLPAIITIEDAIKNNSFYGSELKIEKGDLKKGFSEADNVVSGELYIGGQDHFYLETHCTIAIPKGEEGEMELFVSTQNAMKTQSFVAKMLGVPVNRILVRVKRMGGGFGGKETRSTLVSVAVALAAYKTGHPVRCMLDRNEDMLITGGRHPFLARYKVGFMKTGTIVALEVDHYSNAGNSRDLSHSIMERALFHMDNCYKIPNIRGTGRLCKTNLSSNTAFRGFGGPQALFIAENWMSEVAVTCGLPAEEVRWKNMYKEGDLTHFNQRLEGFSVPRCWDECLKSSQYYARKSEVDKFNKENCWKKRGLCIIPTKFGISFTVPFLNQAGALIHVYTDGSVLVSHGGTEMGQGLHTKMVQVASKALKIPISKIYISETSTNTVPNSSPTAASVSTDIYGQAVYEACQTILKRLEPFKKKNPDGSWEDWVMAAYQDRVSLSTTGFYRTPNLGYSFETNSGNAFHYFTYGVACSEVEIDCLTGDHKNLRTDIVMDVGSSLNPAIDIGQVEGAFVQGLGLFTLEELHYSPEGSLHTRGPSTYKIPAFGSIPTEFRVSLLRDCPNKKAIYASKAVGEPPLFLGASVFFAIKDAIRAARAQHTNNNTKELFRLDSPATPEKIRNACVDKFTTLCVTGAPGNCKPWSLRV

Row | Compound | IC50 [nM]
1 | 1-[5-(4-acetophenyl)-4-cyanopyridin-2-yl]-1H-pyrazole-4-carboxylic acid [Compound 71] | 1 to 5
2 | COc1ccc(-c2cnc(-n3cc(C(=O)O)cn3)cc2C#N)cc1 [Compound 2, 1-[4-cyano-5-(4-methoxyphenyl)pyridin-2-yl]-1H-pyrazole-4-carboxylic acid] | 1 to 5
3 | CCOc1ccccc1-c1cnc(-n2cc(C(=O)O)cn2)cc1C#N [Compound 3, 1-[4-cyano-5-(2-ethoxyphenyl)pyridin-2-yl]-1H-pyrazole-4-carboxylic acid] | 5 to 10
4 | Cc1ccccc1-c1cnc(-n2cc(C(=O)O)cn2)cc1C#N [Compound 4, 1-[4-cyano-5-(2-methylphenyl)pyridin-2-yl]-1H-pyrazole-4-carboxylic acid] | 5 to 10
5 | N#Cc1cc(-n2cc(C(=O)O)cn2)ncc1-c1ccccc1F [Compound 5, 1-[4-cyano-5-(2-fluorophenyl)pyridin-2-yl]-1H-pyrazole-4-carboxylic acid] | 1 to 5
6 | N#Cc1cc(-n2cc(C(=O)O)cn2)ncc1-c1ccccc1Cl [Compound 6, 1-[4-cyano-5-(2-chlorophenyl)pyridin-2-yl]-1H-pyrazole-4-carboxylic acid] | 1 to 5
7 | COc1ccccc1-c1cnc(-n2cc(C(=O)O)cn2)cc1C#N [Compound 7, 1-[4-cyano-5-(2-methoxyphenyl)pyridin-2-yl]-1H-pyrazole-4-carboxylic] | 1 to 5
8 | N#Cc1cc(-n2cc(C(=O)O)cn2)ncc1-c1ccccc1C(F)(F)F [Compound 8, 1-{4-cyano-5-[2-(trifluoromethyl)phenyl]pyridin-2-yl}-1H-pyrazole-4-carboxylic acid] | ≥ 10
9 | N#Cc1cc(-n2cc(C(=O)O)cn2)ncc1-c1ccccc1OC(F)(F)F [Compound 9, 1-{4-cyano-5-[2-(trifluoromethoxy)phenyl]pyridin-2-yl]-1H-pyrazole-4-carboxylic acid] | ≥ 10
10 | Cc1cccc(-c2cnc(-n3cc(C(=O)O)cn3)cc2C#N)c1 [Compound 10, 1-[4-cyano-5-(3-methylphenyl)pyridin-2-yl]-1H-pyrazole-4-carboxylic acid] | 1 to 5
11 | N#Cc1cc(-n2cc(C(=O)O)cn2)ncc1-c1cccc(F)c1 [Compound 11, 1-[4-cyano-5-(3-fluorophenyl)pyridin-2-yl]-1H-pyrazole-4-carboxylic acid] | 5 to 10
12 | N#Cc1cc(-n2cc(C(=O)O)cn2)ncc1-c1cccc(Cl)c1 [Compound 12, 1-[4-cyano-5-(3-chlorophenyl)pyridin-2-yl]-1H-pyrazole-4-carboxylic acid] | 5 to 10
13 | COc1cccc(-c2cnc(-n3cc(C(=O)O)cn3)cc2C#N)c1 [Compound 13, 1-[4-cyano-5-(3-methoxyphenyl)pyridin-2-yl]-1H-pyrazole-4-carboxylic acid] | 1 to 5
14 | Cc1ccc(-c2cnc(-n3cc(C(=O)O)cn3)cc2C#N)cc1 [Compound 14, 1-[4-cyano-5-(4-methylphenyl)pyridin-2-yl]-1H-pyrazole-4-carboxylic acid] | 1 to 5
15 | N#Cc1cc(-n2cc(C(=O)O)cn2)ncc1-c1ccc(Cl)cc1 [Compound 15, 1-[4-cyano-5-(4-chlorophenyl)pyridin-2-yl]-1H-pyrazole-4-carboxylic acid] | 1 to 5
16 | N#Cc1cc(-n2cc(C(=O)O)cn2)ncc1-c1ccc(O)cc1 [Compound 16, 1-[4-cyano-5-(4-hydroxyphenyl)pyridin-2-yl]-1H-pyrazole-4-carboxylic acid] | 1 to 5
17 | CCOc1cccc(F)c1-c1cnc(-n2cc(C(=O)O)cn2)cc1C#N [Compound 17, 1-[4-cyano-5-(2-ethoxy-6-fluorophenyl)pyridin-2-yl]-1H-pyrazole-4-carboxylic acid] | 5 to 10
18 | COc1cccc(F)c1-c1cnc(-n2cc(C(=O)O)cn2)cc1C#N [Compound 18, 1-[4-cyano-5-(2-fluoro-6-methoxyphenyl)pyridin-2-yl]-1H-pyrazole-4-carboxylic acid] | 5 to 10
19 | COc1cccc(-c2cnc(-n3cc(C(=O)O)cn3)cc2C#N)c1F [Compound 19, 1-[4-cyano-5-(2-fluoro-3-methoxyphenyl)pyridin-2-yl]-1H-pyrazole-4-carboxylic acid] | 1 to 5
20 | N#Cc1cc(-n2cc(C(=O)O)cn2)ncc1-c1cccc(F)c1F [Compound 20, 1-[4-cyano-5-(2,3-difluorophenyl)pyridin-2-yl]-1H-pyrazole-4-carboxylic acid] | 1 to 5

Row | Compound | IC50 [nM]
21 | N#Cc1cc(-n2cc(C(=O)O)cn2)ncc1-c1ccsc1 [Compound 21, 1-[4-cyano-5-(thiophen-3-yl)pyridin-2-yl]-1H-pyrazole-4-carboxylic acid] | 1 to 5
22 | Cc1ccsc1-c1cnc(-n2cc(C(=O)O)cn2)cc1C#N [Compound 22, 1-[4-cyano-5-(3-methylthiophen-2-yl)pyridin-2-yl]-1H-pyrazole-4-carboxylic acid] | 1 to 5
23 | N#Cc1cc(-n2cc(C(=O)O)cn2)ncc1-c1ccoc1 [Compound 23, 1-[4-cyano-5-(furan-3-yl)pyridin-2-yl]-1H-pyrazole-4-carboxylic acid] | 5 to 10
24 | COc1cnccc1-c1cnc(-n2cc(C(=O)O)cn2)cc1C#N [Compound 24, 1-[4-cyano-5-(3-methoxypyridin-4-yl)pyridin-2-yl]-1H-pyrazole-4-carboxylic acid] | ≥ 10
25 | N#Cc1cc(-n2cc(C(=O)O)cn2)ncc1-c1cccnc1 [Compound 25, 1-[4-cyano-5-(pyridin-3-yl)pyridin-2-yl]-1H-pyrazole-4-carboxylic acid] | ≥ 10
26 | Cc1nn(-c2cc(C#N)c(-c3ccccc3)cn2)cc1C(=O)O [Compound 26, 1-(4-cyano-5-phenylpyridin-2-yl)-3-methyl-1H-pyrazole-4-carboxylic acid] | ≥ 10
27 | CC(C)c1nn(-c2cc(C#N)c(-c3ccccc3)cn2)cc1C(=O)O [Compound 27, 1-(4-cyano-5-phenylpyridin-2-yl)-3-(propan-2-yl)-1H-pyrazole-4-carboxylic acid] | ≥ 10
28 | Cc1nn(-c2cc(C#N)c(-c3ccccc3)cn2)c(C)c1C(=O)O [Compound 28, 1-(4-cyano-5-phenylpyridin-2-yl)-3,5-dimethyl-1H-pyrazole-4-carboxylic acid] | ≥ 10
29 | N#Cc1cc(-n2cc(C(=O)O)cn2)ncc1-c1ccc(F)cc1 [Compound 29, 1-[4-cyano-5-(4-fluorophenyl)pyridin-2-yl]-1H-pyrazole-4-carboxylic acid] | 1 to 5
30 | CCOc1cccc(-c2cnc(-n3cc(C(=O)O)cn3)cc2C#N)c1 [Compound 30, 1-[4-cyano-5-(3-ethoxyphenyl)pyridin-2-yl]-1H-pyrazole-4-carboxylic acid] | 1 to 5
31 | CCCOc1cccc(-c2cnc(-n3cc(C(=O)O)cn3)cc2C#N)c1 [Compound 31, 1-[4-cyano-5-(3-propoxyphenyl)pyridin-2-yl]-1H-pyrazole-4-carboxylic acid] | 1 to 5
32 | N#Cc1cc(-n2cc(C(=O)O)cn2)ncc1-c1ccc(F)cc1F [Compound 32, 1-[4-cyano-5-(2,4-difluorophenyl)pyridin-2-yl]-1H-pyrazole-4-carboxylic acid] | 1 to 5
33 | Cc1ccc(-c2cnc(-n3cc(C(=O)O)cn3)cc2C#N)c(F)c1 [Compound 33, 1-[4-cyano-5-(2-fluoro-4-methylphenyl)pyridin-2-yl]-1H-pyrazole-4-carboxylic acid] | 1 to 5
34 | Cc1ccc(F)c(-c2cnc(-n3cc(C(=O)O)cn3)cc2C#N)c1 [Compound 34, 1-[4-cyano-5-(2-fluoro-5-methylphenyl)pyridin-2-yl]-1H-pyrazole-4-carboxylic acid] | 1 to 5
35 | N#Cc1cc(-n2cc(C(=O)O)cn2)ncc1-c1cc(F)ccc1F [Compound 35, 1-[4-cyano-5-(2,5-difluorophenyl)pyridin-2-yl]-1H-pyrazole-4-carboxylic acid] | 1 to 5
36 | Cc1cccc(-c2cnc(-n3cc(C(=O)O)cn3)cc2C#N)c1F [Compound 36, 1-[4-cyano-5-(2-fluoro-3-methylphenyl)pyridin-2-yl]-1H-pyrazole-4-carboxylic acid] | 1 to 5
37 | Cc1cc(-c2cnc(-n3cc(C(=O)O)cn3)cc2C#N)ccc1F [Compound 37, 1-[4-cyano-5-(4-fluoro-3-methylphenyl)pyridin-2-yl]-1H-pyrazole-4-carboxylic acid] | 1 to 5
38 | Cc1cccc(-c2cnc(-n3cc(C(=O)O)cn3)cc2C#N)c1C [Compound 38, 1-[4-cyano-5-(2,3-dimethylphenyl)pyridin-2-yl]-1H-pyrazole-4-carboxylic acid] | 1 to 5
39 | Cc1ccc(-c2cnc(-n3cc(C(=O)O)cn3)cc2C#N)cc1F [Compound 39, 1-[4-cyano-5-(3-fluoro-4-methylphenyl)pyridin-2-yl]-1H-pyrazole-4-carboxylic acid] | 1 to 5
40 | N#Cc1cc(-n2cc(C(=O)O)cn2)ncc1-c1ccc(F)c(Cl)c1 [Compound 40, 1-[4-cyano-5-(3-chloro-4-fluorophenyl)pyridin-2-yl]-1H-pyrazole-4-carboxylic acid] | 5 to 10
